Measured values as given in patent US11957687B2 (REGENERON PHARMACEUTICALS, INC., priority 2019, dated 2024).

Molecular target: HSD17B13 (Homo sapiens (Human), UniProt Q7Z5P4)
Assay: HSD17B13 enzymatic inhibition assay (150 nM or 50 nM HSD17B13)
Assay type: biochemical
Conditions: 50 nM HSD17B13; read-out: Inhibition of 50 nM of HSD17B13 IC50

Sequence of HSD17B13 (Q7Z5P4 other isoform, or with tags, fused parts or gaps): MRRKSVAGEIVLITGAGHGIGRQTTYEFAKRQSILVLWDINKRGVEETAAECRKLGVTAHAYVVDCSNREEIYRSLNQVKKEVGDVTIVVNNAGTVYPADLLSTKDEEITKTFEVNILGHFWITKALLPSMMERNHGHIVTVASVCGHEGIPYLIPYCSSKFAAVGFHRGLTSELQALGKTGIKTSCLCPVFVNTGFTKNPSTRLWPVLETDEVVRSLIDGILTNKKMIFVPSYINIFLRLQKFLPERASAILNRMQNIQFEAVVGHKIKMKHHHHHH

Row | SMILES | IC50
1 | Cc1cc(C(=O)NC2c3ccc(Cl)cc3Oc3cccc(Cl)c32)c(=O)[nH]c1C(F)(F)F (stereo not shown) [Compound 211, N-(1,6-dichloro-9H-xanthen-9-yl)-5-methyl-2-oxo-6-(trifluoromethyl)-1,2-dihydropyridine-3-carboxamide] | 0.87 µM
2 | CCc1ccc(C(=O)NC2c3ccccc3-c3ccccc32)c(=O)[nH]1 [Compound 212, 6-ethyl-N-(9H-fluoren-9-yl)-2-oxo-1,2-dihydropyridine-3-carboxamide] | > 10 µM
3 | Cc1cc(C(F)(F)F)[nH]c(=O)c1C(=O)NC1c2ccccc2-c2ccccc21 [Compound 213, N-(9H-fluoren-9-yl)-4-methyl-2-oxo-6-(trifluoromethyl)-1,2-dihydropyridine-3-carboxamide] | 2.24 µM
4 | Cc1c(C(F)(F)F)[nH]c(=O)c(C(=O)NC2c3ccccc3-c3ccccc32)c1C [Compound 214, N-(9H-fluoren-9-yl)-4,5-dimethyl-2-oxo-6-(trifluoromethyl)-1,2-dihydropyridine-3-carboxamide] | > 10 µM
5 | O=C(NCC1c2ccccc2-c2ccccc21)c1ccc(C(F)(F)F)[nH]c1=O [Compound 217, N-((9H-fluoren-9-yl)methyl)-2-oxo-6-(trifluoromethyl)-1,2-dihydropyridine-3-carboxamide] | 8.31 µM
6 | O=C(NC(c1ccc(Cl)cc1)c1ccncn1)c1ccc(C(F)(F)F)[nH]c1=O (stereo not shown) [Compound 219, N-((4-chlorophenyl)(pyrimidin-4-yl)methyl)-2-oxo-6-(trifluoromethyl)-1,2-dihydropyridine-3-carboxamide] | > 10 µM
7 | O=C(NC(c1ccc(Cl)cc1)c1cncnc1)c1ccc(C(F)(F)F)[nH]c1=O (stereo not shown) [Compound 220, N-((4-chlorophenyl)(pyrimidin-5-yl)methyl)-2-oxo-6-(trifluoromethyl)-1,2-dihydropyridine-3-carboxamide] | > 10 µM
8 | CC(NC(=O)c1ccc(C(F)(F)F)[nH]c1=O)c1ccc(Cl)cc1Oc1cccc(Cl)c1 (stereo not shown) [Compound 222, N-(1-(4-chloro-2-(3-chlorophenoxy)phenyl)ethyl)-2-oxo-6-(trifluoromethyl)-1,2-dihydropyridine-3-carboxamide] | 2.17 µM

More lines, now with the values ahead:

Row | IC50 | SMILES
9 | 3.19 µM | O=C(NCc1ccc(Cl)cc1Oc1cccc(Cl)c1)c1ccc(C(F)(F)F)[nH]c1=O [Compound 216, N-(4-chloro-2-(3-chlorophenoxy)benzyl)-2-oxo-6-(trifluoromethyl)-1,2-dihydropyridine-3-carboxamide]
10 | 9.55 µM | Cc1ccc(C(C)NC(=O)c2ccc(C(F)(F)F)[nH]c2=O)cc1 (stereo not shown) [Compound 218]
11 | 6.4 µM | O=C(NC(c1ccccc1)c1cccc(=O)[nH]1)c1ccc(C(F)(F)F)[nH]c1=O (stereo not shown) [Compound 221, 2-oxo-N-((6-oxo-1,6-dihydropyridin-2-yl)(phenyl)methyl)-6-(trifluoromethyl)-1,2-dihydropyridine-3-carboxamide]
12 | > 10 µM | O=C(Nc1cccc(O)c1)c1ccc(C(F)(F)F)[nH]c1=O [Compound 224, N-(3-hydroxyphenyl)-2-oxo-6-(trifluoromethyl)-1,2-dihydropyridine-3-carboxamide]
13 | 4.65 µM | CCc1cccc(NC(=O)c2ccc(C(F)(F)F)[nH]c2=O)c1 [Compound 225, N-(3-ethylphenyl)-2-oxo-6-(trifluoromethyl)-1,2-dihydropyridine-3-carboxamide]
14 | 8.05 µM | Cc1cccc(NC(=O)c2ccc(C(F)(F)F)[nH]c2=O)c1 [Compound 226, 2-oxo-N-(m-tolyl)-6-(trifluoromethyl)-1,2-dihydropyridine-3-carboxamide]
15 | 9.85 µM | O=C(Nc1cccc(Cl)c1)c1ccc(C(F)(F)F)[nH]c1=O [Compound 227, N-(3-chlorophenyl)-2-oxo-6-(trifluoromethyl)-1,2-dihydropyridine-3-carboxamide]
16 | 1.4 µM | O=C(Nc1cccc2cc(O)ccc12)c1ccc(C(F)(F)F)[nH]c1=O [Compound 229, N-(6-hydroxynaphthalen-1-yl)-2-oxo-6-(trifluoromethyl)-1,2-dihydropyridine-3-carboxamide]
